Data from US7935722B2 (Eli Lilly and Company, priority 2005, dated 2011).
Read-outs that look alike come from different tables or passages of the source.

How the values were obtained:
[1] = target: T1, human androgen receptor (AR) (Homo sapiens, UniProt P10275); assay: C2C12 AR/ARE reporter assay; assay type: cell-based
T1 construct: expressed in transfected cells; host or cells: mouse myoblast C2C12 cells, transiently co-transfected
T1 sequence (P10275 1-920): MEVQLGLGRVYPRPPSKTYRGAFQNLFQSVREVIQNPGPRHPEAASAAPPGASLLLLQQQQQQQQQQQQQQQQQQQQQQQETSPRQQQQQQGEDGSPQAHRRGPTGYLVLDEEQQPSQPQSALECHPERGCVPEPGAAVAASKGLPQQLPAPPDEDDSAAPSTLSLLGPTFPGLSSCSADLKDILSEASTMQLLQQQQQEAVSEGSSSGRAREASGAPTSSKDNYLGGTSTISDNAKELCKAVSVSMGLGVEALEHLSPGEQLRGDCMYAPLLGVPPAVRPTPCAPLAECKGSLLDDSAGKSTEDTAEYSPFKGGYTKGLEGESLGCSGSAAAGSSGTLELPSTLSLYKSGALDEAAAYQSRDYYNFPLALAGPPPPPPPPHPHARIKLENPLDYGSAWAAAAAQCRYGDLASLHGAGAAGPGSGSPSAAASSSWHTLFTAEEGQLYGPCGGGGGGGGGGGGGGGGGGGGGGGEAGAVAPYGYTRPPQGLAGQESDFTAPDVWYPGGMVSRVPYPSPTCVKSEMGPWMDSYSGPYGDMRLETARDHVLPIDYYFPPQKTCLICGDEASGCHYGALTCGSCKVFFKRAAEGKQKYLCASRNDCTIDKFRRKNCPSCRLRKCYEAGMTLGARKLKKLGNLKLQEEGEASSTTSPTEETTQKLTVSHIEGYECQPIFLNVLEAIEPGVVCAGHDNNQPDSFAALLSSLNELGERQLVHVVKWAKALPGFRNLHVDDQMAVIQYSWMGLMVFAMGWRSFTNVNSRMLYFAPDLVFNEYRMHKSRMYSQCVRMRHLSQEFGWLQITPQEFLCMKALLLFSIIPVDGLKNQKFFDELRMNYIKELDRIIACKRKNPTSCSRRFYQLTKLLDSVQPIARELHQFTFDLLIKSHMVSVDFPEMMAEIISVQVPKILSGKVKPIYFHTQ
Method: As an indicator of agonist activity in muscle tissue, the C2C12 AR/ARE reporter assay is performed. Briefly, mouse myoblast C2C12 cells are co-transfected using FuGENE™. […] Cells are transfected in T150 cm^2 flasks in DMEM media with 4% or 10% Fetal Bovine Serum […]. After a 5 hour incubation, transfected cells are trypsinized, plated in 96 well dishes in DMEM media containing 10% charcoal-stripped FBS, incubated for 2 h and then exposed to various concentrations of test compounds ranging from about 0.01 nM to 10 μM. After 48 h of incubations with compounds, cells are lysed and luciferase activity is determined using standard techniques. Data is fit to a 4 parameter-fit logistics to determine EC50 values. The % efficacy is determined versus maximum stimulation obtained with 10 nM methyltrienolone. […]

[2] = target: T2, human AR (androgen receptor) (Homo sapiens, UniProt P10275); assay: Steroid hormone nuclear receptor binding assay, AR binding
T2 construct: expressed in transfected cells; host or cells: 293 cells (293-AR lysate)
T2 sequence (P10275 1-920): T1 sequence (P10275 1-920)
Method: Cell lysates from 293 cells overexpressing human GR (glucocorticoid receptor), AR (androgen receptor), MR (mineralocorticoid receptor) or PR (progesterone receptor) are used for competition binding assays to determine Ki values for test compounds. […] Competing compounds are added at various concentrations ranging from about 0.01 nM to 10 μM. Non-specific binding is determined in the presence of 500 nM dexamethasone for GR binding, 500 nM aldosterone for MR binding, or 500 nM methyltrienolone for AR and PR binding. The binding reaction (140 μl) is incubated for overnight at 4° C., then 70 μl of cold charcoal-dextran buffer (containing per 50 ml of assay buffer, 0.75 g of charcoal and 0.25 g of dextran) is added to each reaction. Plates are mixed 8 minutes on an orbital shaker at 4° C. Plates are then centrifuged at 3,000 rpm at 4° C. for 10 minutes. An aliquot of 120 μl of the mix is transferred to another 96-well plate and 175 μl of Wallac Optiphase “Hisafe 3” scintillation fluid is added to each well. Plates are sealed and shaken vigorously on an orbital shaker. After an incubation of 2 hrs, plates are read in a Wallac Microbeta counter. […] The Kd for ^3H-dexamethasone for GR binding, ^3H-methyltrienolone for AR binding, ^3H-aldosterone for MR binding, or ^3H-methyltrienolone for PR binding, is determined by saturation binding. The IC50 values for test compounds are converted to Ki using Cheng-Prusoff equation and the Kd determined by saturation binding assay. […]

[3] = C2C12, read-out: C2C12 % Efficacy
[4] = C2C12 AR/ARE reporter assay, average of n trials, read-out: C2C12 % Efficacy
[5] = C2C12 AR/ARE reporter assay, average of n trials, read-out: C2C12 EC50
[6] = average of n trials, read-out: AR binding Ki

With `CC(C)C(=O)NC1CCc2c(c3cc(C#N)cc(F)c3n2Cc2cccc(F)c2)C1` (stereo not drawn) [Example 121, N-[6-Cyano-8-fluoro-9-(3-fluoro-benzyl)-2,3,4,9-tetrahydro-1H-carbazol-3-yl]-isobutyramide] the EC50 [1] was 0.0062 µM, the Emax [1, 3] was 110% and the Ki [2] was 0.0029 µM.
In the case of `CC(C)C(=O)N[C@@H]1CCc2c(c3cc(-c4nnc(N)s4)ccc3n2Cc2cccc(F)c2)C1` [Example 126, (R)-N-[6-(5-Amino[1,3,4]thiadiazol-2-yl)-9-(3-fluorobenzyl)-2,3,4,9-tetrahydro-1H-carbazol-3-yl]isobutyramide], the EC50 [1] is reported as 0.0313 µM, the Emax [1, 3] is reported as 87% and the Ki [2] is reported as 0.019 µM.
In the case of `CC(C)C(=O)N[C@@H]1CCc2c(c3cc(-c4nncs4)ccc3n2Cc2cccc(F)c2)C1` [Example 127, (R)-N-[9-(3-Fluorobenzyl)-6-[1,3,4]thiadiazole-2-yl-2,3,4,9-tetrahydro-1H-carbazol-3-yl]isobutyramide], the Emax [1, 4] is reported as 72.2%, the EC50 [1, 5] is reported as 0.021 µM and the Ki [2, 6] is reported as 0.0104 µM.
`Cc1csc(-c2ccc3c(c2)c2c(n3Cc3cccc(F)c3)CC[C@@H](NC(=O)C(C)C)C2)n1` [Example 128, (R)-N-[9-(3-Fluorobenzyl)-6-(4-methylthiazol-2-yl)-2,3,4,9-tetrahydro-1H-carbazol-3-yl]isobutyramide] was tested, and the EC50 [1] was 0.236 µM, the Emax [1, 3] was 72.5% and the Ki [2] was 0.043 µM.
For `Cc1nc(-c2ccc3c(c2)c2c(n3Cc3cccc(F)c3)CC[C@@H](NC(=O)C(C)C)C2)sc1C` [Example 129], the EC50 [1] was 0.0736 µM, the Emax [1, 3] was 65.5% and the Ki [2] was 0.196 µM.
`CC(C)C(=O)NC1CCc2c(c3cc(-c4cccnc4)ccc3n2Cc2cccc(F)c2)C1` (stereo not drawn) [Example 132] gave an EC50 [1] of 0.0054 µM, an Emax [1, 3] of 83.9% and a Ki [2] of 0.0074 µM.
`CC(C)C(=O)N[C@@H]1CCc2c(c3cc(-c4cccnc4)ccc3n2Cc2cccc(F)c2)C1` [Example 133] showed an EC50 [1] of 0.0075 µM, an Emax [1, 3] of 66.4% and a Ki [2] of 0.0046 µM.
`CC(C)C(=O)NC1CCc2c(c3cc(-c4ccncc4)ccc3n2Cc2cccc(F)c2)C1` (stereo not drawn) [Example 134] gave an Emax [1, 4] of 37.6%, an EC50 [1, 5] of 0.365 µM and a Ki [2, 6] of 0.38 µM.
`CC(C)C(=O)NC1CCc2c(c3cc(-c4ccc(F)nc4)ccc3n2Cc2cccc(F)c2)C1` (stereo not drawn) [Example 135] gave an Emax [1, 4] of 66%, an EC50 [1, 5] of 0.0623 µM and a Ki [2, 6] of 0.0204 µM.
For `Cc1ncc(-c2ccc3c(c2)c2c(n3Cc3cccc(F)c3)CCC(NC(=O)C(C)C)C2)cn1` (stereo not drawn) [Example 136], the EC50 [1] was 0.0007 µM, the Emax [1, 3] was 90.4% and the Ki [2] was 0.0138 µM.
For `CC(C)C(=O)NC1CCc2c(c3cc(-c4cncnc4)ccc3n2Cc2cccc(F)c2)C1` (stereo not drawn) [Example 137], the EC50 [1] was 0.0175 µM, the Emax [1, 3] was 79.4% and the Ki [2] was 0.0162 µM.
`CC(C)C(=O)NC1CCc2c(c3cc(-c4cccnn4)ccc3n2Cc2cccc(F)c2)C1` (stereo not drawn) [Example 138] was tested, and the Emax [1, 4] was 86.8%, the EC50 [1, 5] was 0.0311 µM and the Ki [2, 6] was 0.0473 µM.
Work on `Cc1ccc(-c2ccc3c(c2)c2c(n3Cc3cccc(F)c3)CCC(NC(=O)C(C)C)C2)nn1` (stereo not drawn) [Example 139, N-[9-(3-Fluoro-benzyl)-6-(6-methyl-pyridazin-3-yl)-2,3,4,9-tetrahydro-1H-carbazol-3-yl]-isobutyramide] yielded an Emax [1, 4] of 96.9%, an EC50 [1, 5] of 0.0194 µM and a Ki [2, 6] of 0.0349 µM.
In the case of `CC(C)C(=O)NC1CCc2c(c3cc(-c4cnc(N)s4)ccc3n2Cc2cccc(F)c2)C1` (stereo not drawn) [Example 140], the EC50 [1] is reported as 0.044 µM, the Emax [1, 3] is reported as 74.6% and the Ki [2] is reported as 0.029 µM.
For `CC(C)C(=O)N[C@@H]1CCc2c(c3cc(-c4cnc(N)s4)ccc3n2Cc2cccc(F)c2)C1` [Example 141], the EC50 [1] was 0.041 µM, the Emax [1, 3] was 102% and the Ki [2] was 0.01 µM.
`CC(C)C(=O)NC1CCc2c(c3cc(-c4ccc(N)nc4)ccc3n2Cc2cccc(F)c2)C1` (stereo not drawn) [Example 142] was tested, and the Emax [1, 4] was 61.8%, the EC50 [1, 5] was 0.0237 µM and the Ki [2, 6] was 0.0318 µM.
For `COc1ccc2c(c1)c1c(n2Cc2ccccn2)CCC(NC(=O)C(C)C)C1` (stereo not drawn) [Example 143, N-(6-methoxy-9-pyridin-2-ylmethyl-2,3,4,9-tetrahydro-1H-carbazol-3-yl)-isobutyramide], the EC50 [1] was 0.351 µM, the Emax [1, 3] was 80.3% and the Ki [2] was 0.362 µM.
For `COc1ccc2c(c1)c1c(n2Cc2cccnc2)CCC(NC(=O)C(C)C)C1` (stereo not drawn) [Example 144], the EC50 [1] was 0.275 µM, the Emax [1, 3] was 41.4% and the Ki [2] was 0.737 µM.
`COc1ccc2c(c1)c1c(n2Cc2ccncc2)CCC(NC(=O)C(C)C)C1` (stereo not drawn) [Example 145] showed an EC50 [1] of 2.05 µM, an Emax [1, 3] of 46.6% and a Ki [2] of 1.4 µM.
Molecule `CC(C)C(=O)NC1CCc2c(c3cc(C#N)ccc3n2Cc2ccccn2)C1` (stereo not drawn) [Example 146] has an EC50 [1] of 0.0155 µM, an Emax [1, 3] of 86.8% and a Ki [2] of 0.0127 µM.
With `CC(C)C(=O)NC1CCc2c(c3cc(C#N)ccc3n2Cc2cscn2)C1` (stereo not drawn) [Example 147, N-(6-Cyano-9-thiazol-4-ylmethyl-2,3,4,9-tetrahydro-1H-carbazol-3-yl)-isobutyramide] the EC50 [1] was 0.0797 µM, the Emax [1, 3] was 102% and the Ki [2] was 0.0292 µM.
`CC(C)C(=O)NC1CCc2c(c3cc(C#N)ccc3n2Cc2ccc(Cl)s2)C1` (stereo not drawn) [Example 148, N-[9-(5-Chloro-thiophen-2-ylmethyl)-6-cyano-2,3,4,9-tetrahydro-1H-carbazol-3-yl]-isobutyramide] was tested, and the Emax [1, 4] was 86.7%, the EC50 [1, 5] was 0.0238 µM and the Ki [2, 6] was 0.0073 µM.
For `CC(C)C(=O)NC1CCc2c(c3cc(C#N)ccc3n2Cc2nccs2)C1` (stereo not drawn) [Example 149, N-(6-Cyano-9-thiazol-2-ylmethyl-2,3,4,9-tetrahydro-1H-carbazol-3-yl)-isobutyramide], the Emax [1, 4] was 91.4%, the EC50 [1, 5] was 0.0176 µM and the Ki [2, 6] was 0.018 µM.
`Cc1nc(Cn2c3c(c4cc(C#N)ccc42)CC(NC(=O)C(C)C)CC3)cs1` (stereo not drawn) [Example 150, N-[6-Cyano-9-(2-methyl-thiazol-4-ylmethyl)-2,3,4,9-tetrahydro-1H-carbazol-3-yl]-isobutyramide] showed an EC50 [1] of 0.0988 µM, an Emax [1, 3] of 91.3% and a Ki [2] of 0.0196 µM.
With `Cc1nc(Cn2c3c(c4cc(C#N)ccc42)C[C@H](NC(=O)C(C)C)CC3)cs1` [Example 151, (R)-N-[6-cyano-9-(2-methyl-thiazol-4-ylmethyl)-2,3,4,9-tetrahydro-1H-carbazol-3-yl]-isobutyramide] the EC50 [1] was 0.0304 µM, the Emax [1, 3] was 85.6% and the Ki [2] was 0.0124 µM.
Work on `Cc1nc(Cn2c3c(c4cc(C#N)ccc42)C[C@@H](NC(=O)C(C)C)CC3)cs1` [Example 152, (S)-N-[6-cyano-9-(2-methyl-thiazol-4-ylmethyl)-2,3,4,9-tetrahydro-1H-carbazol-3-yl]-isobutyramide] yielded an EC50 [1] of 0.409 µM, an Emax [1, 3] of 61.1% and a Ki [2] of 0.208 µM.
`CC(C)C(=O)NC1CCc2c(c3cc(C#N)ccc3n2Cc2csc(Cl)n2)C1` (stereo not drawn) [Example 153, N-[9-(2-Chloro-thiazol-4-ylmethyl)-6-cyano-2,3,4,9-tetrahydro-1H-carbazol-3-yl]-isobutyramide] was tested, and the EC50 [1] was 0.0193 µM, the Emax [1, 3] was 93.3% and the Ki [2] was 0.0078 µM.
Work on `CC(C)C(=O)N[C@@H]1CCc2c(c3cc(C#N)ccc3n2Cc2csc(Cl)n2)C1` [Example 154, (R)-N-[9-(2-Chloro-thiazol-4-ylmethyl)-6-cyano-2,3,4,9-tetrahydro-1H-carbazol-3-yl]-isobutyramide] yielded an EC50 [1] of 0.0044 µM, an Emax [1, 3] of 119% and a Ki [2] of 0.0022 µM.
